Measured values: ChEMBL document CHEMBL1201862, “PubChem BioAssay data set” (2004)
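These data come from cells grown in 96-well plates and exposed to compound for 48 hours at five concentrations. GI50: concentration for 50% inhibition of growth.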 Active and inactive are the calls of the source. Cut-off read from the data, not from the text of the source: active = GI50 up to about 1.1 µM and inactive = higher.

Assays:
Assay in all cases: inhibition of tumour cell growth, NCI panel, 48 h
786-0 = test system: 786-0
A498 = test system: A498
A549 = test system: A549
BT-549 = test system: BT-549
CAKI-1 = test system: CAKI-1
CCRF-CEM = test system: CCRF-CEM
COLO 205 = test system: COLO 205
DU-145 = test system: DU-145
EKVX = test system: EKVX
HCC 2998 = test system: HCC 2998
HCT-116 = test system: HCT-116
HCT-15 = test system: HCT-15
HL-60 = test system: HL-60
HT-29 = test system: HT-29
Hs-578T = test system: Hs-578T
IGROV-1 = test system: IGROV-1
K562 = test system: K562
KM12 = test system: KM12
LOX IMVI = test system: LOX IMVI
M14 = test system: M14
MCF7 = test system: MCF7
MDA-MB-231 = test system: MDA-MB-231
MDA-MB-435 = test system: MDA-MB-435
MDA-N = test system: MDA-N
MOLT-4 = test system: MOLT-4
Malme-3M = test system: Malme-3M
NCI-H226 = test system: NCI-H226
NCI-H23 = test system: NCI-H23
NCI-H460 = test system: NCI-H460
NCI-H522 = test system: NCI-H522
NCI/ADR-RES = test system: NCI/ADR-RES
OVCAR-3 = test system: OVCAR-3
OVCAR-4 = test system: OVCAR-4
OVCAR-5 = test system: OVCAR-5
OVCAR-8 = test system: OVCAR-8
PC-3 = test system: PC-3
RPMI-8226 = test system: RPMI-8226
RXF 393 = test system: RXF 393
SF-268 = test system: SF-268
SF-539 = test system: SF-539
SK-MEL-28 = test system: SK-MEL-28
SK-MEL-2 = test system: SK-MEL-2
SK-MEL-5 = test system: SK-MEL-5
SK-OV-3 = test system: SK-OV-3
SN12C = test system: SN12C
SNB-19 = test system: SNB-19
SNB-75 = test system: SNB-75
SR = test system: SR
SW-620 = test system: SW-620
T47D = test system: T47D
TK-10 = test system: TK-10
U-251 = test system: U-251
UACC-257 = test system: UACC-257
UACC-62 = test system: UACC-62
UO-31 = test system: UO-31
ACHN = test system: ACHN
HOP-62 = test system: HOP-62
HOP-92 = test system: HOP-92
SF-295 = test system: SF-295

Measured: GI50

CSc1c(C#N)c(S)[nH]c(=O)c1C#N
inactive: 786-0 71.8 µM | A498 38.2 µM | A549 40.7 µM | BT-549 40.5 µM | CAKI-1 > 100 µM | CCRF-CEM 55.5 µM | COLO 205 31.9 µM | DU-145 48 µM | EKVX 29.6 µM | HCC 2998 36.2 µM | HCT-116 34.4 µM | HL-60 1.85 µM | HT-29 25.4 µM | Hs-578T 24.2 µM | IGROV-1 22.8 µM | K562 18.1 µM | KM12 65.8 µM | LOX IMVI 37.1 µM | M14 24.5 µM | MCF7 37.9 µM | MDA-MB-231 42.8 µM | MDA-MB-435 20.6 µM | MDA-N 24.4 µM | MOLT-4 33 µM | Malme-3M 7.14 µM | NCI-H226 30.3 µM | NCI-H23 23.7 µM | NCI-H460 97.7 µM | NCI-H522 8.34 µM | NCI/ADR-RES 43.2 µM | OVCAR-3 33.8 µM | OVCAR-4 10.4 µM | OVCAR-5 > 100 µM | OVCAR-8 47.2 µM | PC-3 29.4 µM | RPMI-8226 3.89 µM | RXF 393 26.1 µM | SF-268 32.7 µM | SF-539 > 100 µM | SK-MEL-28 46.1 µM | SK-MEL-2 13.7 µM | SK-MEL-5 9.91 µM | SK-OV-3 > 100 µM | SN12C 85.5 µM | SNB-19 58.5 µM | SNB-75 32.1 µM | SR 51.2 µM | SW-620 48.9 µM | T47D 24.9 µM | TK-10 23.2 µM | U-251 > 100 µM | UACC-257 35.8 µM | UACC-62 21.2 µM | UO-31 18.7 µM
44.4 µM: HCT-15

S=C(N/N=C\c1ccccn1)N(Cc1ccccn1)Cc1ccccn1
active: 786-0 0.697 µM | ACHN 0.316 µM | CAKI-1 0.229 µM | CCRF-CEM < 0.019 µM | EKVX 0.721 µM | HCT-116 0.557 µM | HT-29 0.0822 µM | IGROV-1 0.427 µM | K562 0.205 µM | LOX IMVI 0.646 µM | M14 1.1 µM | MCF7 0.111 µM | MDA-MB-231 0.419 µM | MOLT-4 0.0582 µM | NCI-H226 < 0.0419 µM | NCI-H460 1.11 µM | NCI-H522 0.0637 µM | OVCAR-4 0.91 µM | OVCAR-8 0.367 µM | SF-268 0.431 µM | SK-MEL-5 1.07 µM | SN12C 0.34 µM | SW-620 0.333 µM | TK-10 0.637 µM | U-251 0.195 µM
inactive: A549 2.3 µM | BT-549 1.93 µM | DU-145 2.29 µM | HCC 2998 7.03 µM | HOP-62 2.71 µM | HOP-92 1.32 µM | Hs-578T 16 µM | KM12 1.49 µM | MDA-MB-435 4.45 µM | MDA-N 7.55 µM | Malme-3M 1.37 µM | NCI-H23 1.87 µM | NCI/ADR-RES 1.19 µM | OVCAR-3 1.94 µM | OVCAR-5 13 µM | PC-3 6.89 µM | RPMI-8226 1.17 µM | RXF 393 10.4 µM | SF-295 1.65 µM | SF-539 4.68 µM | SK-MEL-28 1.22 µM | SK-MEL-2 11.6 µM | SK-OV-3 2.04 µM | SNB-19 3.47 µM | SNB-75 5.43 µM | SR 1.42 µM | T47D 1.46 µM | UACC-257 4.82 µM | UACC-62 2.08 µM | UO-31 1.26 µM
0.622 µM: HCT-15

O=c1oc2c(Cl)cc(Cl)cc2cc1-c1cn2c(n1)sc1ccccc12
28.6 µM: HCT-15
inactive: 786-0 32.9 µM | A549 > 100 µM | ACHN 65.3 µM | BT-549 28.6 µM | CAKI-1 71.6 µM | CCRF-CEM 17.3 µM | COLO 205 90.4 µM | DU-145 74 µM | EKVX 65.8 µM | HCC 2998 24.5 µM | HCT-116 27.9 µM | HL-60 23.9 µM | HOP-62 53.5 µM | HOP-92 56.1 µM | HT-29 71.1 µM | Hs-578T > 100 µM | IGROV-1 44.1 µM | K562 20.2 µM | KM12 > 100 µM | LOX IMVI 60.3 µM | M14 78.7 µM | MCF7 44.1 µM | MDA-MB-231 28.4 µM | MDA-MB-435 38.4 µM | MDA-N 38.6 µM | MOLT-4 20.4 µM | Malme-3M > 100 µM | NCI-H23 95.5 µM | NCI-H460 > 100 µM | NCI-H522 30.1 µM | NCI/ADR-RES > 100 µM | OVCAR-3 31.4 µM | OVCAR-4 47.6 µM | OVCAR-5 > 100 µM | OVCAR-8 87.1 µM | PC-3 47.1 µM | RPMI-8226 24.7 µM | RXF 393 31.2 µM | SF-268 65.8 µM | SF-295 59.2 µM | SF-539 > 100 µM | SK-MEL-28 > 100 µM | SK-MEL-2 > 100 µM | SK-MEL-5 39.2 µM | SK-OV-3 > 100 µM | SN12C 67.8 µM | SNB-19 > 100 µM | SNB-75 > 100 µM | SR 21.1 µM | SW-620 31.9 µM | T47D 49.8 µM | TK-10 > 100 µM | U-251 > 100 µM | UACC-257 > 100 µM | UACC-62 35.9 µM | UO-31 36.1 µM
